Measurements reported in article PMC3499488, “A Potential Peptide Therapeutic Derived from the Juxtamembrane Domain of the Epidermal Growth Factor Receptor” (PLoS ONE, 2012).
Like-named read-outs stand apart in the source and are kept apart here. Where a SMILES comes first, the peptide text is derived from it.

Experiments:
MDA-MB-231 cells [1] = experiment: Cell viability assay (CellTiter-Glo); format: cell-based, human
Text: Assays are run in triplicate.

MDA-MB-231 cells [2] = experiment: Cellular entry of FAM-labeled peptides, live-cell fluorescent confocal microscopy; format: cell-based, human; details: N-terminally FAM-labeled peptide, monitored up to 90 minutes and/or overnight incubation, confocal fluorescence
Description: (§1) MDA-MB-231 cells (1×10^5 cells per plate) were plated on 35 mm glass-bottom plates (MatTek Corporation, Ashland, MA), allowed to adhere overnight, then serum starved overnight and analyzed the following day in HBSS (Hank’s balanced salt solution). For real-time uptake of the FAM-labeled peptides, after recording background images, the FAM-labeled peptides were added and cells were imaged every two minutes over approximately 30 minutes. After 30 minutes, images were taken less frequently. Images from representative timepoints are shown. For overnight treatment, the cells were treated in serum-starved media, exchanged into HBSS the following day and imaged.

SK-N-MC cells = experiment: Cellular entry of FAM-labeled peptide, fluorescent confocal microscopy; format: cell-based, human; details: FAM-labeled peptide 1.5 µM, serum starved cells, confocal fluorescence
Description: as §1
(§2) FAM-TE-64562 enters in SK-N-MC cells without any effect of EGF pretreatment. Confocal images of overnight serum starved MDA-MB-231 cells before treatment (0 min) and treated for 90 minutes (A) with 5.0 µM […], (B) with 1.25 µM FAM-Tat or (C) with 2.5 µM FAM-Tat for 60 minutes. (D) SK-N-MC were serum starved overnight and treated with FAM-TE-64562 (1.5 µM) for 16 minutes. (E) NR6 cells MC were serum starved overnight and treated with FAM-TE-64562 (5 µM) for 20 minutes. All scale bars are 20 µm. (TIF) Click here for additional data file.

NR6 cells = experiment: as above; format: cell-based; details: FAM-labeled peptide 5 µM, serum starved cells, confocal fluorescence
Description: as §1, §2

[3] = serum starved overnight (0.1% BSA, no FBS), 24 h treatment, CellTiter-Glo, mean ± S.D. of at least three independent experiments, read-out: EC50± S.D.

EC50 (MDA-MB-231 cells [1]; [3]) [µM] | SMILES | fluorescence within the interior of the cell (MDA-MB-231 cells [2]) | also measured
> 100 | CC[C@H](C)[C@H](NC(=O)[C@H](CCCNC(=N)N)NC(=O)[C@H](CC(C)C)NC(=O)[C@H](CCC(=O)O)NC(=O)[C@H](CCC(=O)O)NC(=O)[C@H](CC(C)C)NC(=O)[C@H](C)NC(=O)[C@H](CCCNC(=N)N)NC(=O)[C@H](CCC(=O)O)NC(=O)[C@H](CCC(=O)O)NC(=O)[C@@H](NC(=O)[C@H](CCCNC(=N)N)NC(=O)[C@H](C)NC(=O)[C@H](CCCNC(=N)N)NC(=O)[C@H](CCC(=O)O)NC(=O)[C@H](CCC(=O)O)NC(=O)CNC(=O)[C@H](CCCNC(=N)N)NC(=O)[C@H](CCCNC(=N)N)NC(=O)[C@H](CCCNC(=N)N)NC(=O)[C@H](CCC(N)=O)NC(=O)[C@H](CCCNC(=N)N)NC(=O)[C@H](CCCNC(=N)N)NC(=O)[C@H](CCCCN)NC(=O)[C@H](CCCCN)NC(=O)[C@@H](N)CCCNC(=N)N)C(C)C)C(=O)N[C@@H](CCC(=O)O)C(=O)N[C@@H](CCC(=O)O)C(=O)O [T-control] (H-RKKRRQRRRGEERARVEERALEELRIEE-OH) | – | –
> 100 | CC[C@H](C)[C@H](NC(=O)[C@H](CCCNC(=N)N)NC(=O)[C@H](CC(C)C)NC(=O)[C@H](CC(C)C)NC(=O)[C@H](C)NC(=O)[C@H](CCC(N)=O)NC(=O)[C@H](CC(N)=O)NC(=O)[C@@H]1CCCN1C(=O)[C@H](C)NC(=O)[C@H](CCC(=O)O)NC(=O)CNC(=O)[C@H](CO)NC(=O)[C@@H]1CCCN1C(=O)[C@@H](NC(=O)[C@H](CC(C)C)NC(=O)[C@@H]1CCCN1C(=O)[C@H](CCC(=O)O)NC(=O)[C@@H](NC(=O)CNC(=O)[C@H](CCCNC(=N)N)NC(=O)[C@H](CCCNC(=N)N)NC(=O)[C@H](CCCNC(=N)N)NC(=O)[C@H](CCC(N)=O)NC(=O)[C@H](CCCNC(=N)N)NC(=O)[C@H](CCCNC(=N)N)NC(=O)[C@H](CCCCN)NC(=O)[C@H](CCCCN)NC(=O)[C@@H](N)CCCNC(=N)N)C(C)C)[C@@H](C)O)C(=O)O [TE-66482] (H-RKKRRQRRRGVEPLTPSGEAPNQALLRI-OH) | – | –
> 100 | N=C(N)NCCC[C@H](NC(=O)[C@H](CCCNC(=N)N)NC(=O)[C@H](CCCNC(=N)N)NC(=O)[C@H](CCC(N)=O)NC(=O)[C@H](CCCNC(=N)N)NC(=O)[C@H](CCCNC(=N)N)NC(=O)[C@H](CCCCN)NC(=O)[C@H](CCCCN)NC(=O)[C@@H](N)CCCNC(=N)N)C(=O)NCC(=O)O [Tat, reference compound] (H-RKKRRQRRRG-OH) | – | –
> 100 | CC(C)C[C@H](NC(=O)[C@H](CC(C)C)NC(=O)[C@H](CCCNC(=N)N)NC(=O)[C@H](CCCNC(=N)N)NC(=O)[C@H](C)NC(=O)[C@H](C)NC(=O)[C@H](CCCNC(=N)N)NC(=O)[C@H](CCCCN)NC(=O)[C@H](CCCNC(=N)N)NC(=O)[C@H](C)NC(=O)[C@H](C)NC(=O)[C@H](Cc1c[nH]cn1)NC(=O)[C@H](CCCNC(=N)N)NC(=O)[C@H](CCCNC(=N)N)NC(=O)[C@H](CCCNC(=N)N)NC(=O)CNC(=O)[C@H](CCCNC(=N)N)NC(=O)[C@H](CCCNC(=N)N)NC(=O)[C@H](CCCNC(=N)N)NC(=O)[C@H](CCC(N)=O)NC(=O)[C@H](CCCNC(=N)N)NC(=O)[C@H](CCCNC(=N)N)NC(=O)[C@H](CCCCN)NC(=O)[C@H](CCCCN)NC(=O)[C@@H](N)CCCNC(=N)N)C(=O)N[C@@H](C)C(=O)N[C@@H](C)C(=O)N[C@@H](CCCNC(=N)N)C(=O)O [T-poly-Ala] (H-RKKRRQRRRGRRRHAARKRAARRLLAAR-OH) | – | –

The next lines start with the molecule.

SMILES | EC50 (MDA-MB-231 cells [1]; [3]) [µM] | fluorescence within the interior of the cell (MDA-MB-231 cells [2]) | also measured
CC[C@H](C)[C@H](NC(=O)[C@H](Cc1c[nH]cn1)NC(=O)[C@H](CCCNC(=N)N)NC(=O)[C@H](CCCNC(=N)N)NC(=O)[C@@H](N)CCCNC(=N)N)C(=O)N[C@H](C(=O)N[C@@H](CCCNC(=N)N)C(=O)N[C@@H](CCCCN)C(=O)N[C@@H](CCCNC(=N)N)C(=O)N[C@H](C(=O)N[C@@H](CC(C)C)C(=O)N[C@@H](CCCNC(=N)N)C(=O)N[C@@H](CCCNC(=N)N)C(=O)N[C@@H](CC(C)C)C(=O)N[C@@H](CC(C)C)C(=O)N[C@@H](CCC(N)=O)C(=O)N[C@@H](CCC(=O)O)C(=O)N[C@@H](CCCNC(=N)N)C(=O)O)[C@@H](C)O)C(C)C [E-64562] (H-RRRHIVRKRTLRRLLQER-OH) | – | – | EC50 (MDA-MB-231 cells [1]; 24 h): > 100 µM
N=C(N)NCCC[C@H](NC(=O)c1ccc2c(c1)C(=O)OC21c2ccc(O)cc2Oc2cc(O)ccc21)C(=O)N[C@@H](CCCCN)C(=O)N[C@@H](CCCCN)C(=O)N[C@@H](CCCNC(=N)N)C(=O)N[C@@H](CCCNC(=N)N)C(=O)N[C@@H](CCC(N)=O)C(=O)N[C@@H](CCCNC(=N)N)C(=O)N[C@@H](CCCNC(=N)N)C(=O)N[C@@H](CCCNC(=N)N)C(=O)NCC(=O)O [FAM-conjugated Tat, reference compound] (HELM PEPTIDE1{[O=C1OC2(c3ccc(O)cc3Oc3cc(O)ccc32)c2ccc(C(=O)[*:2])cc21].R.K.K.R.R.Q.R.R.R.G}$$$$V2.0) | – | did not display any fluorescence within the interior of the cell | –
CC[C@H](C)[C@H](NC(=O)[C@H](Cc1c[nH]cn1)NC(=O)[C@H](CCCNC(=N)N)NC(=O)[C@H](CCCNC(=N)N)NC(=O)[C@H](CCCNC(=N)N)NC(=O)CNC(=O)[C@H](CCCNC(=N)N)NC(=O)[C@H](CCCNC(=N)N)NC(=O)[C@H](CCCNC(=N)N)NC(=O)[C@H](CCC(N)=O)NC(=O)[C@H](CCCNC(=N)N)NC(=O)[C@H](CCCNC(=N)N)NC(=O)[C@H](CCCCN)NC(=O)[C@H](CCCCN)NC(=O)[C@H](CCCNC(=N)N)NC(=O)c1ccc2c(c1)C(=O)OC21c2ccc(O)cc2Oc2cc(O)ccc21)C(=O)N[C@H](C(=O)N[C@@H](CCCNC(=N)N)C(=O)N[C@@H](CCCCN)C(=O)N[C@@H](CCCNC(=N)N)C(=O)N[C@H](C(=O)N[C@@H](CC(C)C)C(=O)N[C@@H](CCCNC(=N)N)C(=O)N[C@@H](CCCNC(=N)N)C(=O)N[C@@H](CC(C)C)C(=O)N[C@@H](CC(C)C)C(=O)N[C@@H](CCC(N)=O)C(=O)N[C@@H](CCC(=O)O)C(=O)N[C@@H](CCCNC(=N)N)C(=O)O)[C@@H](C)O)C(C)C [FAM-conjugated TE-64562] (HELM PEPTIDE1{[O=C1OC2(c3ccc(O)cc3Oc3cc(O)ccc32)c2ccc(C(=O)[*:2])cc21].R.K.K.R.R.Q.R.R.R.G.R.R.R.H.I.V.R.K.R.T.L.R.R.L.L.Q.E.R}$$$$V2.0) | – | – | time until peptide entered cells (SK-N-MC cells): ≤ 15 min; time until peptide entered cells (NR6 cells): ≤ 15 min
CC[C@H](C)[C@H](NC(=O)[C@H](Cc1c[nH]cn1)NC(=O)[C@H](CCCNC(=N)N)NC(=O)[C@H](CCCNC(=N)N)NC(=O)[C@H](CCCNC(=N)N)NC(=O)c1ccc2c(c1)C(=O)OC21c2ccc(O)cc2Oc2cc(O)ccc21)C(=O)N[C@H](C(=O)N[C@@H](CCCNC(=N)N)C(=O)N[C@@H](CCCCN)C(=O)N[C@@H](CCCNC(=N)N)C(=O)N[C@H](C(=O)N[C@@H](CC(C)C)C(=O)N[C@@H](CCCNC(=N)N)C(=O)N[C@@H](CCCNC(=N)N)C(=O)N[C@@H](CC(C)C)C(=O)N[C@@H](CC(C)C)C(=O)N[C@@H](CCC(N)=O)C(=O)N[C@@H](CCC(=O)O)C(=O)N[C@@H](CCCNC(=N)N)C(=O)O)[C@@H](C)O)C(C)C [FAM-conjugated E-64562] (HELM PEPTIDE1{[O=C1OC2(c3ccc(O)cc3Oc3cc(O)ccc32)c2ccc(C(=O)[*:2])cc21].R.R.R.H.I.V.R.K.R.T.L.R.R.L.L.Q.E.R}$$$$V2.0) | – | did not display any fluorescence within the interior of the cell | –
CC[C@H](C)[C@H](NC(=O)[C@H](CCCNC(=N)N)NC(=O)[C@H](CC(C)C)NC(=O)[C@H](CC(C)C)NC(=O)[C@H](C)NC(=O)[C@H](CCC(N)=O)NC(=O)[C@H](CC(N)=O)NC(=O)[C@@H]1CCCN1C(=O)[C@H](C)NC(=O)[C@H](CCC(=O)O)NC(=O)CNC(=O)[C@H](CO)NC(=O)[C@@H]1CCCN1C(=O)[C@@H](NC(=O)[C@H](CC(C)C)NC(=O)[C@@H]1CCCN1C(=O)[C@H](CCC(=O)O)NC(=O)[C@@H](NC(=O)CNC(=O)[C@H](CCCNC(=N)N)NC(=O)[C@H](CCCNC(=N)N)NC(=O)[C@H](CCCNC(=N)N)NC(=O)[C@H](CCC(N)=O)NC(=O)[C@H](CCCNC(=N)N)NC(=O)[C@H](CCCNC(=N)N)NC(=O)[C@H](CCCCN)NC(=O)[C@H](CCCCN)NC(=O)[C@H](CCCNC(=N)N)NC(=O)c1ccc2c(c1)C(=O)OC21c2ccc(O)cc2Oc2cc(O)ccc21)C(C)C)[C@@H](C)O)C(=O)O [FAM-labeled TE-66482] (HELM PEPTIDE1{[O=C1OC2(c3ccc(O)cc3Oc3cc(O)ccc32)c2ccc(C(=O)[*:2])cc21].R.K.K.R.R.Q.R.R.R.G.V.E.P.L.T.P.S.G.E.A.P.N.Q.A.L.L.R.I}$$$$V2.0) | – | did not display any fluorescence within the interior of the cell | –
